Patent US20250275995A1, “NICOTINAMIDE RIBOSIDE DOSAGE REGIMEN FOR TREATING PARKINSON'S DISEASE” (VESTLANDETS INNOVASJONSSELSKAP AS (VIS), priority 2022, published 2025)
“And” between values parts separate entries of the source, which are not always exact repeats. Identical values can stand only once.

What was measured:
Type in all cases: in vivo, human
[1] = tested on: individuals with PD; test: NR-SAFE: vital signs, body metrics, ECG
Procedure: (§1) At screening for trial entry, candidates underwent physical and neurological examination. Enrolled participants were assessed by physical visits by a movement disorder specialist at baseline (visit 1, V1), day 7 (V4), day 14 (V5), day 21 (V6) and day 28 (V7). At baseline and day 28 participants underwent additional assessment with the Movement Disorder Society Unified Parkinson's disease Rating Scale section I-IV (MDS-UPDRS). At all physical visits an electrocardiogram (ECG), vital parameters (blood pressure, pulse, weight, height) and blood samples were obtained. Additional blood samples were taken on day 3 (V2) and day 5 (V3) to assess safety. The participants were interviewed by telephone consultation by a study nurse on day 3 and day 35 to screen for additional adverse events. Participants were instructed to take their anti-Parkinson drugs as they normally would and no changes were made to anti-Parkinson drug treatment during the trial. Adverse events (AEs) were recorded by the investigating physician. These were then classified by severity according to the Common Terminology Criteria for Adverse Events v5.0 (CTCAE)^13 as either mild (1), moderate (2), severe (3), life-threatening (4) or death (5). The AE relation to the study drug was scored as unrelated (1), unlikely (2), possible (3), probable (4) or definitely (5). 13 Freites-Martinez, A., Santana, N., Arias-Santiago, S. & Viera, A. Using the Common Terminology Criteria for Adverse Events (CTCAE—Version 5.0) to Evaluate the Severity of Adverse Events of Anticancer Therapies. Actas Dermosifiliogr (Engl Ed) 112, 90-92 (2021).

[2] = tested on: individuals with newly diagnosed, drug-naïve PD; test: NADPARK phase I trial: tolerability of NR therapy (1000 mg per day, 30 days) in PD
Procedure: The present inventors completed a phase I randomized, double blinded trial, aiming to assess the tolerability, cerebral bioavailability and molecular effects of NR therapy in PD. A total of 30 individuals with newly diagnosed, drug-naïve PD were randomized to NR 500 mg×2/day or placebo for 30 days (Cell Metab. 2022 Mar. 1; 34(3):396-407.e6).
NR is well-tolerated. […] NR achieves brain penetration. […] While a significant NR-induced increase in cerebral NAD levels was detected at the group level, this effect was not uniform at the individual level.

[3] = tested on: brain NAD levels; test: NAD-brain pharmacokinetic study: brain NAD by 31P-MRS; conditions: 1200 mg daily for 8 days
Procedure: • At screening, participants are assessed for eligibility, inclusion/exclusion criteria, medical history and concomitant medication is recorded, and informed consent signed. • The NAD-brain study performs a parallel assessment of NAD replenishment therapy pharmacokinetics in the blood and brain of healthy human subjects and subjects with Parkinson's disease (PD). Healthy individuals and individuals with PD undergo repeated blood sampling and 31P-MRS brain scans during two 20-day periods, each of which starts with 8 days of daily intake of NR 600 mg×2, or NMN 600 mg×2 (Table 10). • For each 20-day period the testing (i.e., scanning and blood draw) frequency is shown in Table 10, below. The two 20-day periods are 14 days apart to allow for washout of the previous compound. This is a pharmacokinetic (PK) study where 6 healthy individuals (3 male and 3 female): • 1) Received NR 1200 mg daily (600 mg×2) for 8 days, followed by an additional 11 days follow up, while undergoing serial blood and brain NAD-measurement. • 2) Received NMN 1200 mg daily (600 mg×2) for 8 days, followed by an additional 11 days follow up, while undergoing serial blood and brain NAD-measurement. The individuals were mixed, so that in stage-1 three individuals received NR and three individuals received NMN, then in stage-2 they switched (Cross-over design). There were almost three weeks (20 days) of washout between the last dose of the first compound, and before the first dose of the second compounds. In the brain, total NAD (NAD^++NADH) levels were measured by 31P-MRS as previously described^19. […] 19 Brakedal, B. et al. The […] study: A randomized phase I trial of nicotinamide riboside supplementation in Parkinson's disease. Cell Metab 34, 396-407.e6 (2022).

[4] = tested on: Parkinson's Disease (PD); test: NR-SAFE: MDS-UPDRS and Hoehn and Yahr scores
Procedure: as §1

[5] = tested on: NAD metabolome; test: NR-SAFE: NAD and glutathione metabolites in frozen whole blood (NADMed assay)
Procedure: Analysis was carried out by NADMed (Helsinki, Finland; www.nadmed.com). NAD and glutathione metabolites were extracted from frozen blood in a single step using a proprietary extraction procedure, and each metabolite was measured individually using optimized cyclic enzymatic assays with colorimetric detection.

[6] = V1 (baseline), NR 3000 mg daily group, ±sd
[7] = V7 (day 28), NR 3000 mg daily, ±sd
[8] = NADMed assay, V1 to V7, 3000 mg NR daily

## NC(=O)c1ccc[n+]([C@@H]2O[C@H](CO)[C@@H](O)[C@H]2O)c1 [NR, nicotinamide riboside]
[1]; NR 3000 mg daily, 4 weeks
  Electrocardiography (ECG): no changes of clinical significance
  changes in systolic or diastolic blood pressure, pulse or weight between visit 1 and visit 7: No significant changes in systolic or diastolic blood pressure, pulse or weight
[1]; NR group, 3000 mg daily, 4 weeks
  patients who developed asymptomatic bradycardia: Two
[1]; NR group, 3000 mg daily, individual patients
  heart rate of patients with asymptomatic bradycardia: 58 beats/min and 46 beats/min
[1]; [6]
  Diastolic blood pressure: 74.7 ± 8.49 mmHg
  Pulse: 64.2 ± 14.67 min⁻¹
  Systolic blood pressure: 122.1 ± 12.53 mmHg
  Weight: 79.38 ± 11.92 kg
[1]; [7]
  Diastolic blood pressure: 76.2 ± 6.81 mmHg
  Pulse: 61.1 ± 12.95 min⁻¹
  Systolic blood pressure: 122.2 ± 7.49 mmHg
  Weight: 79.38 ± 11.79 kg
[1]; Δ=V7−V1, NR 3000 mg daily, ±sd
  Diastolic blood pressure, Δ: 1.5 ± 8.31 mmHg
  Pulse, Δ: -3.1 ± 9.48 min⁻¹
  Systolic blood pressure, Δ: 0.1 ± 8.29 mmHg
  Weight, Δ: 0 ± 0.58 kg
[2]; NR 1000 mg daily, Phase I study
  serum homocysteine levels: no change in serum homocysteine levels
[2]; NR 1000 mg per day, 30 days, PD
  compliance, tolerability, toxicity: excellent compliance, tolerability and no signs of toxicity or adverse side effects
[3]; 31P-MRS, day 9 (NR), day 8 (NMN)
  brain NAD levels, baseline vs day of maximal blood NAD: significant increase in brain NAD levels
[3]; 11 days after last dose
  NAD levels at day 19: remained elevated
[4]; NR 3000 mg daily, 4 weeks
  clinical symptoms of PD, measured by MDS-UPDRS: significantly improved clinical symptoms of PD
[4]; [6]
  Hoehn & Yahr score: 2 ± 0.66
  MDS-UPDRS Part I: 7.8 ± 5.37
  MDS-UPDRS Part II: 9.4 ± 6.25
  MDS-UPDRS Part III: 29.7±12.85
  MDS-UPDRS Part IV: 4.1 ± 4.88
  Total MDS-UPDRS: 51±21.28
[4]; V1, subgroup of 8 participants with similar intervals since last levodopa dose, NR 3000 mg daily
  total MDS-UPDRS, subgroup: 46.62±17.76
[4]; [7]
  Hoehn & Yahr score: 2.1 ± 0.31
  MDS-UPDRS Part I: 5.6 ± 5.01
  MDS-UPDRS Part II: 8.8 ± 7.58
  MDS-UPDRS Part III: 22.7±7.55
  MDS-UPDRS Part IV: 3.2 ± 3.15
  Total MDS-UPDRS: 40.3±17.1
[4]; V7, subgroup of 8 participants with similar intervals since last levodopa dose, NR 3000 mg daily
  total MDS-UPDRS, subgroup: 35.75±11.74
[4]; V7−V1, subgroup of 8 participants with similar intervals since last levodopa dose, NR 3000 mg daily
  total MDS-UPDRS mean change, subgroup: −10.87±11.15
[4]; Δ=V7−V1, NR 3000 mg daily, ±sd
  Hoehn & Yahr score, Δ: 0.1 ± 0.56
  MDS-UPDRS Part I, Δ: −2.2 ± 3.52
  MDS-UPDRS Part II, Δ: −0.6 ± 2.36
  MDS-UPDRS Part III, Δ: −7 ± 7.98
  MDS-UPDRS Part IV, Δ: −0.9 ± 2.60
  Total MDS-UPDRS, Δ (mean change): −10.7±9.94
[5]; 3000 mg NR daily, 4 weeks
  increase in whole blood NAD^+ levels: ~3.7 fold
[5]; 3000 mg NR daily, 4 weeks, range across individuals
  increase in whole blood NAD^+ levels, range: 1.8-5.8 fold
[5]; 3000 mg NR daily, 4 weeks, summary statement
  increase in blood NAD^+ levels (maximum): up to 5 fold
[5]; [8]
  whole blood GSH and GSSG: remained unchanged
  whole blood NADH level: marked increase
  whole blood NADP^+ and total NADP levels: increase in NADP^+ and total NADP levels
  whole blood NADP^+/NADPH ratio: trend towards increased NADP^+/NADPH ratio
  whole blood NAD^+ level: marked increase
  whole blood NAD^+/NADH ratio: overall elevated NAD^+/NADH ratio
